The source made the active and inactive calls. No cut-off for these calls is given here.
Tests used:
[1] = biological target: T1, Epidermal growth factor receptor (Homo sapiens, UniProt P00533); test: Inhibition of EGF-induced EGFR phosphorylation at Tyrosine residue in human A549 cells at 0.2 uM preincubated for 2 hrs followed by EGF stimulation measured after 10 mins by Western blot analysis; assay type: cell-based
A549 [2] = test: Induction of apoptosis in human A549 cells assessed as early apoptotic cells at 1 uM after 48 hrs by Annexin V-FITC/propidium iodide satining based FACS analysis (reference value: 2.78%); assay type: functional
A549 [3] = test: Induction of apoptosis in human A549 cells assessed as early apoptotic cells at 2 uM after 48 hrs by Annexin V-FITC/propidium iodide satining based FACS analysis (reference value: 2.78%); assay type: functional
A549 [4] = test: Induction of apoptosis in human A549 cells after 48 hrs by Annexin V-FITC/propidium iodide satining based FACS analysis; assay type: functional, cell-based
[5] = biological target: Epidermal growth factor receptor (Homo sapiens, UniProt P00533, L858R); test: Inhibition of EGFR L858R mutant (unknown origin) using ULight-poly GT as substrate preincubated for 120 mins followed by substrate addition measured after 2 hrs by spectrophotometric method
Sequence of Epidermal growth factor receptor (Homo sapiens, UniProt P00533, L858R) (P00533 25-1210 L858R limits assumed): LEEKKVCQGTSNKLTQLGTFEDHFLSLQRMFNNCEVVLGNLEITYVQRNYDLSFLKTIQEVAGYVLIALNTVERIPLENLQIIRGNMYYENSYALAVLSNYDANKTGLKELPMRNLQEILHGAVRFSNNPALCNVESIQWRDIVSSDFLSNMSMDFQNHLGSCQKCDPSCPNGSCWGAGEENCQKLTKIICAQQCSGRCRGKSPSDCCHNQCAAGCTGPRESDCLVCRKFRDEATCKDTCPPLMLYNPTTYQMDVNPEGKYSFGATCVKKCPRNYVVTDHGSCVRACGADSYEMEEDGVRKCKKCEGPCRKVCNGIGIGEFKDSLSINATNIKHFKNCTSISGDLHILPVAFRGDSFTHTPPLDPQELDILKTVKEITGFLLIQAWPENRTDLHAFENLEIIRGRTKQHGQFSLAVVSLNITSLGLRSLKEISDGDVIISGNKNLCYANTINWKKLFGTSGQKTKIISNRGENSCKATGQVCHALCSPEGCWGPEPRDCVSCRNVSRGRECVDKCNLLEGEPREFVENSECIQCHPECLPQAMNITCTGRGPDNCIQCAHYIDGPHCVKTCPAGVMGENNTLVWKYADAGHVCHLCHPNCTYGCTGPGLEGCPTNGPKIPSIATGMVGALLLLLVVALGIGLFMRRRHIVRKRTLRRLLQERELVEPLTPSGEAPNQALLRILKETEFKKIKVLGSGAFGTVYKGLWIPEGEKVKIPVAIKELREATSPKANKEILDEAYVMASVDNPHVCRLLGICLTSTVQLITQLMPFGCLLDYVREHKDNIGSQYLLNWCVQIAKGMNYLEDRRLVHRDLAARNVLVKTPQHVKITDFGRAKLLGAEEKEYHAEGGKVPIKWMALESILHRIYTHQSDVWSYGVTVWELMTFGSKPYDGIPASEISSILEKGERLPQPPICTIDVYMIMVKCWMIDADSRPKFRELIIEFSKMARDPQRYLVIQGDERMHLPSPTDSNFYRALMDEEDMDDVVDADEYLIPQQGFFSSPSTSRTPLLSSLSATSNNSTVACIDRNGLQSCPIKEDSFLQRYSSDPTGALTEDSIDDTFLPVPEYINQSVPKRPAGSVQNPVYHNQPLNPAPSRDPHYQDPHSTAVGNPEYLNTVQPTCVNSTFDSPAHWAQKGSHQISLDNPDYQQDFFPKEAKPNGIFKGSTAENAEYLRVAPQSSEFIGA

A549 [6] = test: Induction of apoptosis in human A549 cells assessed as late apoptotic cells at 3 uM after 48 hrs by Annexin V-FITC/propidium iodide satining based FACS analysis (reference value: 1.21%); assay type: functional
A549 [7] = test: Cell cycle arrest in human A549 cells assessed as accumulation at G0/G1 phase at 1 uM after 48 hrs by propidium iodide satining based FACS analysis (reference value: 48.87%); assay type: functional
A-431 = test: Antiproliferative activity against human A431 cells harboring wild type EGFR after 72 hrs by MTT assay; assay type: functional, cell-based; conditions: A-431, 72 h
A549 [8] = test: Induction of apoptosis in human A549 cells assessed as viable cells at 3 uM after 48 hrs by Annexin V-FITC/propidium iodide satining based FACS analysis (reference value: 95.87%); assay type: functional; conditions: A549, 48 h, read-out: Activity
A549 [9] = test: Cell cycle arrest in human A549 cells assessed as accumulation at G0/G1 phase at 5 uM after 48 hrs by propidium iodide satining based FACS analysis (reference value: 48.87%); assay type: functional
[10] = biological target: T1, Epidermal growth factor receptor; test: Inhibition of EGF-induced EGFR activation in human A549 cells assessed as reduction in Akt phosphorylation at S473 residue at 0.2 uM preincubated for 2 hrs followed by EGF stimulation measured after 10 mins by Western blot analysis; assay type: cell-based
A549 [11] = test: Cell cycle arrest in human A549 cells assessed as accumulation at S phase at 5 uM after 48 hrs by propidium iodide satining based FACS analysis (reference value: 34.45%); assay type: functional
[12] = system: Epidermal growth factor receptor (Homo sapiens), P00533 [L858R,T790M]; test: Inhibition of EGF-induced EGFR L858R/T790M double mutant activation in human NCI-H1975 cells assessed as reduction in STAT3 phosphorylation at Y705 residue at 5 uM preincubated for 2 hrs followed by EGF stimulation measured after 10 mins by Western blot analysis; assay type: cell-based
Sequence of Epidermal growth factor receptor (Homo sapiens), P00533 [L858R,T790M] (P00533 whole entry T790M/L858R, looked up): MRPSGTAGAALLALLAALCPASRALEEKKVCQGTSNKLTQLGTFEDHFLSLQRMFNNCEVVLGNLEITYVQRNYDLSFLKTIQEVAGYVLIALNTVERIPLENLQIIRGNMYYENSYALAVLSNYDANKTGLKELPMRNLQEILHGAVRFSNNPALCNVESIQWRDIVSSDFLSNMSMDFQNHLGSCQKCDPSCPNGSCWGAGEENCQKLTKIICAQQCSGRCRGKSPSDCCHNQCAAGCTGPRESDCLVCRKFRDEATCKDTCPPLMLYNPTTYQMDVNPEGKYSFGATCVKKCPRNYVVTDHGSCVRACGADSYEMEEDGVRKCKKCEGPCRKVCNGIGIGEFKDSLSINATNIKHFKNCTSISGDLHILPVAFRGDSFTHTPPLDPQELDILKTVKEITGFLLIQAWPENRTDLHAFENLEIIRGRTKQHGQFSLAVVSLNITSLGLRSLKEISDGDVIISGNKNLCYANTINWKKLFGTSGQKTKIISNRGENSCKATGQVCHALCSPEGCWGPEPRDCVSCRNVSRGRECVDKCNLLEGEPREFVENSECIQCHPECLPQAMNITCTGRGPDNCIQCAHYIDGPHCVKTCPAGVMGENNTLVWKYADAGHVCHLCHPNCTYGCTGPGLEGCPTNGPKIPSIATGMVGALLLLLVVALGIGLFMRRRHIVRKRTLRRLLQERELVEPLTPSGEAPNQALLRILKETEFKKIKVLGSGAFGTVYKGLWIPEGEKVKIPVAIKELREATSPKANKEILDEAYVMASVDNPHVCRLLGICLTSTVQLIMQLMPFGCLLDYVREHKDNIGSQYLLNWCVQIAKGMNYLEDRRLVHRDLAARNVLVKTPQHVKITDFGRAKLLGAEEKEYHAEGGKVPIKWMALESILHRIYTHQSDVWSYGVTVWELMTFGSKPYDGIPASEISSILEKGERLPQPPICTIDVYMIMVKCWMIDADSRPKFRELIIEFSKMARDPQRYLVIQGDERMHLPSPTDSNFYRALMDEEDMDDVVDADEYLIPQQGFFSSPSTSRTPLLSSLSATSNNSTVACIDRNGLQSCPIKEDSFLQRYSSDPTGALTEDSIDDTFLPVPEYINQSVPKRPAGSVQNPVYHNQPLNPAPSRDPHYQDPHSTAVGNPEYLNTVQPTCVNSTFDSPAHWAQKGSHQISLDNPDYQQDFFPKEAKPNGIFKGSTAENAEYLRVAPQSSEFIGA

[13] = system: Epidermal growth factor receptor (Homo sapiens), P00533 [L858R,T790M]; test: Inhibition of EGF-induced EGFR L858R/T790M double mutant phosphorylation at Y1068 residue in human NCI-H1975 cells preincubated for 2 hrs followed by EGF stimulation measured after 10 mins by Western blot analysis; assay type: cell-based
[14] = system: Epidermal growth factor receptor (Homo sapiens), P00533 [L858R,T790M]; test: Inhibition of EGF-induced EGFR L858R/T790M double mutant phosphorylation at Y992 residue in human NCI-H1975 cells preincubated for 2 hrs followed by EGF stimulation measured after 10 mins by Western blot analysis; assay type: cell-based
A549 [15] = test: Induction of apoptosis in human A549 cells assessed as late apoptotic cells at 2 uM after 48 hrs by Annexin V-FITC/propidium iodide satining based FACS analysis (reference value: 1.21%); assay type: functional
A549 [16] = test: Antiproliferative activity against human A549 cells harboring wild type EGFR/K-ras mutant after 72 hrs by MTT assay; assay type: functional, cell-based; conditions: A549, 72 h
A549 [17] = test: Cell cycle arrest in human A549 cells after 48 hrs by propidium iodide satining based FACS analysis; assay type: functional
A549 [18] = test: Effect on total Akt protein expression in human A549 cells at 0.2 to 5 uM after 2 hrs by Western blot analysis; assay type: ADME, cell-based; conditions: a549, 2 h
[19] = biological target: T1, Epidermal growth factor receptor; conditions: A549, at 5 µM
Description: Inhibition of EGF-induced EGFR phosphorylation at Y1086 residue in human A549 cells at 5 uM preincubated for 2 hrs followed by EGF stimulation measured after 10 mins by Western blot analysis

A549 [20] = test: Induction of apoptosis in human A549 cells assessed as necrotic cells at 4 uM after 48 hrs by Annexin V-FITC/propidium iodide satining based FACS analysis (reference value: 0.14%); assay type: functional
[21] = biological target: T1, Epidermal growth factor receptor; test: Inhibition of EGF-induced EGFR phosphorylation at Y992 residue in human A549 cells at 0.2 uM preincubated for 2 hrs followed by EGF stimulation measured after 10 mins by Western blot analysis; assay type: cell-based
A549 [22] = test: Cell cycle arrest in human A549 cells assessed as accumulation at S phase at 0.5 uM after 48 hrs by propidium iodide satining based FACS analysis (reference value: 34.45%); assay type: functional
A549 [23] = test: Cell cycle arrest in human A549 cells assessed as accumulation at G2/M phase at 0.5 uM after 48 hrs by propidium iodide satining based FACS analysis (reference value: 16.09%); assay type: functional
[24] = biological target: T1, Epidermal growth factor receptor; test: Inhibition of EGF-induced EGFR activation in human A549 cells assessed as reduction in ERK1/2 phosphorylation at T202/Y204 residues at 0.2 uM preincubated for 2 hrs followed by EGF stimulation measured after 10 mins by Western blot analysis; assay type: cell-based
[25] = system: Epidermal growth factor receptor (Homo sapiens), P00533 [L858R,T790M]; test: Inhibition of EGF-induced EGFR L858R/T790M double mutant phosphorylation at Tyrosine residue in human NCI-H1975 cells preincubated for 2 hrs followed by EGF stimulation measured after 10 mins by Western blot analysis; assay type: cell-based

T1 sequence (P00533 whole entry): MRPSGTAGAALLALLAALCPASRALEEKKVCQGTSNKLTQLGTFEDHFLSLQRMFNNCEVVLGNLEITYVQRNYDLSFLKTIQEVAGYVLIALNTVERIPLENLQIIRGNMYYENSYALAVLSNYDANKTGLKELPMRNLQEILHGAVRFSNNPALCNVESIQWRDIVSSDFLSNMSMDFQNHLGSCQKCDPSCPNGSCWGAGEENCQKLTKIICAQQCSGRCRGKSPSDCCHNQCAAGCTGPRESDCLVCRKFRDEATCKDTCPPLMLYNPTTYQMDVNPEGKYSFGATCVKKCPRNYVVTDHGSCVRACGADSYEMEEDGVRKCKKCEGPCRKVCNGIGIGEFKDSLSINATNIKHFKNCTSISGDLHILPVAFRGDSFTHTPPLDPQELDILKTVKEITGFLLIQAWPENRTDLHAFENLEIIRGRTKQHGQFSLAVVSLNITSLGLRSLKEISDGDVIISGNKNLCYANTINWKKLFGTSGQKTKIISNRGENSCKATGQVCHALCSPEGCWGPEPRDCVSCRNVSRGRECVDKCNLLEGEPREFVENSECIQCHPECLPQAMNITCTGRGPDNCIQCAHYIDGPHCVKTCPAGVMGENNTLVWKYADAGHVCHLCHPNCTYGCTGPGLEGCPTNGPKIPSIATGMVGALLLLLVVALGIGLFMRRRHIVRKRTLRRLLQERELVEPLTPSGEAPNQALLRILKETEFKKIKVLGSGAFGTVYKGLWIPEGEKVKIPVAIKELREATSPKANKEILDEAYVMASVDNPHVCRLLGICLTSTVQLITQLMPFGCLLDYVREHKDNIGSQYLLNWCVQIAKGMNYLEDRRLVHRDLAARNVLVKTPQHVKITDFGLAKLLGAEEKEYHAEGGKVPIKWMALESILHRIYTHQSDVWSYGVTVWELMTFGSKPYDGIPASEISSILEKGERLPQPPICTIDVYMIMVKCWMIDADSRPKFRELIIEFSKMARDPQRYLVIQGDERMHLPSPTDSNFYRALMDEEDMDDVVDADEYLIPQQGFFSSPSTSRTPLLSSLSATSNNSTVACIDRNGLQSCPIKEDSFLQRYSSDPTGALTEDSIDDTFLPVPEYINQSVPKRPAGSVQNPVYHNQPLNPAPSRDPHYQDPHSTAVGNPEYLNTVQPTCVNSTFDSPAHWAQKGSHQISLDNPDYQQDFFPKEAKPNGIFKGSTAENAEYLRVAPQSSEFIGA

Fc1cccc(COc2ccc(Nc3ncnc4cc(OCCCN5CCOCC5)c(OCCCN5CCOCC5)cc34)cc2Cl)c1
inhibition [1]: Active
Activity (A549 [2]): 3.9%
Activity (A549 [3]): 4.46%
Activity (A549 [4]): Dose-dependent effect
IC50 [5]: 0.323 µM
Activity (A549 [6]): 8.5%
Activity (A549 [7]): 52.91%
IC50 (A-431): 1.31 µM
viability at 3 µM (A549 [8]): 82.8%
Activity (A549 [9]): 73.54%
inhibition [10]: Active
Activity (A549 [11]): 17.61%
inhibition [12]: inactive
inhibition [13]: Dose-dependent effect
inhibition [14]: Dose-dependent effect
Activity (A549 [15]): 7.37%
IC50 (A549 [16]): 1.65 µM
Activity (A549 [17]): Dose-dependent effect
Activity (A549 [18]): Non-Toxic
inhibition [19]: Active
Activity (A549 [20]): 0.57%
inhibition [21]: Active
Activity (A549 [22]): 33.8%
Activity (A549 [23]): 14.96%
inhibition [24]: Active
inhibition [25]: Dose-dependent effect
